# “Also recorded” adds a separate entry of the source.
# Key:
# [1] = system: Supercoiled plasmid DNA, PBR 322; test: UVA-mediated strand breaks in plasmid DNA, agarose gel electrophoresis; settings: for strand-breaks in supercoiled plasmid DNA on UVA exposure / effect on the plasmid in the dark: 50 μM; for strand-breaks in supercoiled plasmid DNA on UVA exposure: UVA for 80 min, FIG. 3; for effect on the plasmid in the dark: incubated 80 min in the dark
# Description: (§1) UVA and UVB irradiation were carried out under the following conditions. Samples were exposed to UV light at a distance of 30 cm from either a 15 W UVA lamp, Sylvania 350 BL, (lambda max=365 nm, 820 μW/cm2) or 15 W UVB lamp, UVP (lambda max=302 nm, 820 μW/cm2); both purchased from UVP, Inc., USA. The lamps were mounted in a UVP Model XX-15 lamp holder rested on a XX exposure stand.
# (§2) To give a solution depth of about 3 mm, 0.5 ml reaction volumes were used in clear 24-well plates. To prevent evaporation during the UVA exposure, samples were covered with MICROAMP™ Optical Adhesive Film (ABI) allowing greater than 80% transmission above 330 nm. […] reactions were covered with a quartz window. All reactions were performed at ambient temperature in 10 mM potassium phosphate pH 7.41 (measured at 10 mM and 21° C.), equilibrated to air, in the presence of 100 μM diethylenetriaminepentaacetic acid in order to prevent the effect of adventitious redox-active metal ions, pre-empt the Fenton reaction and avoid hydroxyl radical-induced damage.
# Strand breaks in DNA were detected as follows. Supercoiled plasmid DNA is converted into a nicked circular-form (relaxed) due to single-strand breaks, and subsequently into a linear form due to double-strands breaks. The three forms can be separated by agarose gel electrophoresis. Supercoiled DNA migrates further than the linear form, which in turn migrates further than the relaxed form.
# A mixture of 0.1 μg of plasmid DNA, PBR 322, and folic acid, 5-MTHF or PCA in 10 mM potassium phosphate, pH 7.4, was incubated for 80 min under the above UVA-irradiation conditions for a total exposure of 4 J/cm^2. To partially maintain the concentration of 5-MTHF, a 0.25 mM solution was continuously added to the reaction mixture at 1.1 μl/min using a Harvard syringe pump with magnetic stirring.
# A sample of 10 μl of the reaction mixture was then subjected to agarose gel electrophoresis after addition of 2 μl of 10× gel loading buffer. Agarose gel for electrophoresis was prepared by dissolving 0.9% agarose in 45 mM Tris-borate buffer (pH 8.3), containing 1 mM EDTA. Electrophoresis was run at 4 V/cm for 1 h. The gel was incubated with 1 μg/ml SYBR Safe stain, and the DNA bands were scanned using Fuji FLA-5000 phosphor-imaging system.
# [2] = Rose Bengal photosensitization reaction, depletion of 5-MTHF (HPLC)
# Description: Photochemical reactions with Rose Bengal were carried out as follows. Samples in septum-stoppered glass cuvettes were illuminated at a distance of 12 cm by light from a 40 W tungsten lamp passed through a Wratten #16 gelatin filter. Reactions were equilibrated with air or sparged with 100% or 1.8% O2 in argon, or extensively with 100% argon, and illumination was carried out at ambient temperature. Samples were taken through the septum by syringe and injected directly into the HPLC.
# (§3) 5-MTHF photodegradation was assayed by HPLC using the following procedure. Samples were taken during light exposure at various times and analyzed by HPLC on a Luna phenyl-hexyl 5 μm (25×0.46 cm) column (Phenomenex) eluted at a flow rate of 1.5 ml/min with ammonium phosphate (20 mM in ammonium), pH 2.8/acetonitrile (17:1) with detection by UV absorbance using Waters 996, photodiode array spectrometer.
# [3] = Photodegradation on UVA, UVB or visible light exposure without photosensitizer (HPLC)
# Description: as §1, §2, §3
# [4] = Rate of reaction with singlet oxygen in water; type: physicochemical; settings: inferred from competition with azide
# [5] = Reaction with photoexcited pterin-6-carboxylic acid under UVA, depletion of 5-MTHF (HPLC)
# Description: as §1, §2
# (§4) Reactions with photoexcited pterin-6-carboxylic acid or folic acid were carried out as follows. Samples were exposed in 24-well plates to UVA light in 0.5 ml reaction volumes containing 5-MTHF and folic acid or PCA in the absence or presence of sodium ascorbate in 10 mM potassium phosphate buffer pH 7.42. […]
# [6] = Description: as §1, §2, §4
# [7] = cited from earlier work
# [8] = system: Rose Bengal-loaded THP-1 cells; settings: viable Rose Bengal-loaded THP-1 cells; cited from earlier work
smiles,measurement,setting,value
"CN1c2c(nc(N)[nH]c2=O)NC[C@@H]1CNc1ccc(C(=O)N[C@@H](CCC(=O)[O-])C(=O)O)cc1.CN1c2c(nc(N)[nH]c2=O)NC[C@@H]1CNc1ccc(C(=O)N[C@@H](CCC(=O)[O-])C(=O)O)cc1.[Ca+2] [5-MTHF, 5-Methyl-6S-tetrahydrofolic acid calcium salt]",UVA mediated DNA-damage in the presence of folic acid or PCA,"[1]; 50 μM folic acid or PCA, UVA 80 min, 5-MTHF added continuously, 10 μM falling to 0.25 μM, calcium salt",inhibited
same,cleavage of plasmid DNA induced by the compound alone under UV,"[1]; 5-MTHF alone, UV",does not induce cleavage of plasmid DNA
same,5-MTHF concentration that prevented strand-breaks in plasmid DNA,[1]; in the presence of photoexcited PCA,below 10 μM
same,depletion of 5-MTHF by visible-light sensitized Rose Bengal,"[2]; 25 μM 5-MTHF, pH 7.4, Rose Bengal, SOD, FIG. 2A",depleted
same,effectiveness in scavenging singlet oxygen relative to azide,"[2]; competition reaction, high concentrations of O2, FIG. 2B",about 20 fold
same,stability when illuminated alone,"[3]; UVA, UVB or visible light, no photosensitizer, calcium salt",stable; also recorded: unaffected; also recorded: not photolyzed directly by UV
same,degradation (autooxidation) on exposure to UVA or UVB,"[3]; in 1 hr, same extent as in the absence of light",< 5%
same,rate of reaction with singlet oxygen,[4],nearly diffusion limited
same,time to complete depletion of 5-MTHF,"[5]; initial 25 μM 5-MTHF, 50 μM PCA, UVA exposure",≤ 15 min
same,5-MTHF concentration that prevented photodegradation of folic acid,[6]; UV exposure,below 10 μM
same,folic acid maintained until 5-MTHF decayed below this concentration,"[6]; photolysis of folic acid in the presence of 5-MTHF, FIG. 1",below 1 μM
"Nc1nc2ncc(C(=O)O)nc2c(=O)[nH]1 [PCA, pterin-6 carboxylic acid]",strand-breaks in supercoiled plasmid DNA on UVA exposure,[1],high percentage of strand-breaks
same,effect on the plasmid in the dark,[1],no effect
"O=C1O[C@H]([C@@H](O)CO)C([O-])=C1O.[Na+] [ascorbate, sodium ascorbate]",rate constant for the reaction with singlet oxygen in water,[7],8.3e+06 M⁻¹ s⁻¹
same,rate of loss of 5-MTHF in Rose-Bengal induced photosensitization,"[2]; mM levels of sodium ascorbate, high oxygen, FIG. 2C",decreased
same,maintenance of 5-MTHF throughout the reaction,"[5]; 1 mM ascorbate, 25 μM 5-MTHF, 10 μM PCA, UVA",substantially maintained
same,effect on the generation of protein-derived peroxides,[8],no effect
"[N-]=[N+]=[N-].[Na+] [azide, Sodium azide]",protection against UVA mediated DNA-damage,"[1]; 10 mM sodium azide, same conditions",full protection
same,rate constant for the reaction with singlet oxygen in water,[7],4.5e+08 M⁻¹ s⁻¹
same,decrease of the depletion rate of 5-MTHF,"[2]; 0.5 mM azide, 100% O2, 10 μM Rose Bengal, FIG. 2B",about 50%
same,decrease of the initial rate of depletion of 5-MTHF,"[2]; 5 mM azide, 100% O2, 10 μM Rose Bengal, FIG. 2B",about 80%
Nc1nc2ncc(CNc3ccc(C(=O)N[C@@H](CCC(=O)O)C(=O)O)cc3)nc2c(=O)[nH]1 [folic acid],strand-breaks in supercoiled plasmid DNA on UVA exposure,[1],high percentage of strand-breaks
same,effect on the plasmid in the dark,[1],no effect
same,photolysis products on exposure to UVA,"[3]; UVA, HPLC, similar results with UVB","initially yields, p-aminobenzoylglutamate and 6-FP"

# — patent US20090170858A1, “Methods and Compositions Containing Natural Folates for Protecting Against Radiation Damage” (priority 2005, published 2009)
